# Results taken from US12325710B2, “Substituted 1,2,3,4,5,6-hexahydroazepino[4,5-b]indoles for treating brain disorders” (priority 2019, dated 2025).
# Entries after “also recorded” stand apart in the source; their conditions may differ.
# Legend:
# [1] = target: 5-HT2B receptors (Homo sapiens, UniProt P41595); test: 5-HT2B Gq-mediated calcium flux functional assay; format: cell-based
# Procedure: (§1) Serotonin and Opioid Receptor Functional Assays. Functional assay screens at 5-HT and opioid receptors were performed in parallel using the same compound dilutions and 384-well format high-throughput assay platforms. Assays assessed activity at all human isoforms of the receptors, except where noted for the mouse 5-HT2A receptor. Receptor constructs in pcDNA vectors were generated from the Presto-Tango GPCR library with minor modifications. All compounds were serially diluted in drug buffer (HBSS, 20 mM HEPES, pH 7.4 supplemented with 0.1% bovine serum albumin and 0.01% ascorbic acid) and dispensed into 384-well assay plates using a FLIPR^TETRA (Molecular Devices). Every plate included a positive control such as 5-HT (for all 5-HT receptors), DADLE (DOR), salvinorin A (KOR), and DAMGO (MOR). For measurements of 5-HT2A, 5-HT2B, and 5-HT2C Gq-mediated calcium flux function, HEK Flp-In 293 T-Rex stable cell lines (Invitrogen) were loaded with Fluo-4 dye for one hour, stimulated with compounds and read for baseline (0-10 seconds) and peak fold-over-basal fluorescence (5 minutes) at 25° C. on the FLIPR^TETRA. For measurement of 5-HT6 and 5-HT7a functional assays, Gs-mediated cAMP accumulation was detected using the split-luciferase GloSensor assay in HEKT cells measuring luminescence on a Microbeta Trilux (Perkin Elmer) with a 15 min drug incubation at 25° C. For 5-HT1A, 5-HT1B, 5-HT1F, MOR, KOR, and DOR functional assays, Gi/o-mediated cAMP inhibition was measured using the split-luciferase GloSensor assay in HEKT cells, conducted similarly as above, but in combination with either 0.3 μM isoproterenol (5-HT1A, 5-HT1B, 5-HT1F) or 1 μM forskolin (MOR, KOR, and DOR) to stimulate endogenous cAMP accumulation. For measurement of 5-HT1D, 5-HT1E, 5-HT4, and 5-HT5A functional assays, β-arrestin2 recruitment was measured by the Tango assay utilizing HTLA cells expressing TEV fused-β-arrestin2, as described previously with minor modifications. […]
# [2] = tested on: C57BL/6J mice; test: Head-twitch response (HTR) assay; conditions: intraperitoneal; fumarate salts; 5-MeO-DMT 10 mg/kg as positive control
# [3] = target: T1, 5-HT2C (Homo sapiens, UniProt P28335); test: 5-HT2C Gq-mediated calcium flux functional assay; format: cell-based
# T1 sequence (P28335 33-458): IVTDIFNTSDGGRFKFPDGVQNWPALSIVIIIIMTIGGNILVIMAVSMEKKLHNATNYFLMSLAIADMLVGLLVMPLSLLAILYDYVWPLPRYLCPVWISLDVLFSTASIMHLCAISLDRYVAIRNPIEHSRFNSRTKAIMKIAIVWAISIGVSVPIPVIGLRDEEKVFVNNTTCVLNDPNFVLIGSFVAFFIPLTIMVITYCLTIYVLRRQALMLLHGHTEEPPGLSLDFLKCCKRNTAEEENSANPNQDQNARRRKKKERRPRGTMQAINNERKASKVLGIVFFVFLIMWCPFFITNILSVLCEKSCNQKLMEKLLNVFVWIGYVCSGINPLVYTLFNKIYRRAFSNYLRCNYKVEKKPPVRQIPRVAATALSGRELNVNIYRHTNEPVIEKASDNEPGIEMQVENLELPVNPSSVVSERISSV
# Procedure: as §1, with “C.” for “C. For 5-HT1A, 5-HT1B, 5-HT1F, MOR, KOR, and DOR functional assays, Gi/o-mediated cAMP inhibition was measured using the split-luciferase GloSensor assay in HEKT cells, conducted similarly as above, but in combination with either 0.3 μM isoproterenol (5-HT1A, 5-HT1B, 5-HT1F) or 1 μM forskolin (MOR, KOR, and DOR) to stimulate endogenous cAMP accumulation. For measurement of 5-HT1D, 5-HT1E, 5-HT4, and 5-HT5A functional assays, β-arrestin2 recruitment was measured by the Tango assay utilizing HTLA cells expressing TEV fused-β-arrestin2, as described previously with minor modifications.”
# [4] = tested on: larval zebrafish expressing GCaMP5; test: Seizurogenic potential in larval zebrafish expressing GCaMP5; format: in vivo; conditions: 200 μM; PTZ positive control
# Procedure: Transgenic larval zebrafish expressing GCaMP5G were immobilized in agarose, treated with compounds, and imaged over time. The known seizure-inducing compound PTZ was used as a positive control. All compounds were treated at 200 μM (n=2 per condition).
# [5] = target: mouse 5-HT2A receptors (Mus musculus, UniProt P35363); test: 5-HT2A Gq-mediated calcium flux functional assay (mouse); format: cell-based
# Chain of mouse 5-HT2A receptors (P35363 whole entry, the tested form may be a part): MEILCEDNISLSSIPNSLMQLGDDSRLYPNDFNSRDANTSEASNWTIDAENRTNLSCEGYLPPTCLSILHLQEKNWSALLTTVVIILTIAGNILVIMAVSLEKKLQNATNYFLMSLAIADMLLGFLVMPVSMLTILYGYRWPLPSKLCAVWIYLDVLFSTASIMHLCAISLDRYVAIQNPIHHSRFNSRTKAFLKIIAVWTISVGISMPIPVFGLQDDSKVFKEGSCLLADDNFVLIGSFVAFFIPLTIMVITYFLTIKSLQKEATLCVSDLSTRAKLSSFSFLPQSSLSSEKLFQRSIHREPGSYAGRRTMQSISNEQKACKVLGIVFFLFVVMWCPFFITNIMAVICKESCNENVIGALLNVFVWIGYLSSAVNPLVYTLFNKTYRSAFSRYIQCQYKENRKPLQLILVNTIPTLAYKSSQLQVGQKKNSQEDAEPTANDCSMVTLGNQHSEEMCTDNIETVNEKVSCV
# Procedure: as §1, with “C.” for “C. For 5-HT1A, 5-HT1B, 5-HT1F, MOR, KOR, and DOR functional assays, Gi/o-mediated cAMP inhibition was measured using the split-luciferase GloSensor assay in HEKT cells, conducted similarly as above, but in combination with either 0.3 μM isoproterenol (5-HT1A, 5-HT1B, 5-HT1F) or 1 μM forskolin (MOR, KOR, and DOR) to stimulate endogenous cAMP accumulation. For measurement of 5-HT1D, 5-HT1E, 5-HT4, and 5-HT5A functional assays, β-arrestin2 recruitment was measured by the Tango assay utilizing HTLA cells expressing TEV fused-β-arrestin2, as described previously with minor modifications.”
# [6] = tested on: C57/BL6J mice; test: Two-bottle choice alcohol consumption (binge drinking); format: in vivo, mouse
# Procedure: Alcohol Consumption. Male C57/BL6J mice (6-8 weeks old) were obtained from The Jackson Laboratory (Bar Harbor, ME) and were individually housed in a reverse light/dark cycle room (lights on […]). Temperature was kept constant at 22±2° C., and relative humidity was maintained at 50±5%. Mice were given access to food and tap water ad libitum. After one week of habituation to the vivarium, the two-bottle choice alcohol-drinking paradigm was conducted as described previously. For 7 weeks, mice were given intermittent access in their home cage to alcohol. On Mondays, Wednesdays, and Fridays, two bottles were made available for 24 h—one containing 20% ethanol and another containing only water. On Tuesdays, Thursdays, Saturdays, and Sundays, the animals were only given access to water. After 7 weeks, mice were administered TBG (50 mg/kg) or vehicle (saline) via intraperitoneal injection 3 h before the beginning of a drinking session. Ethanol (g/kg) and water (ml/kg) intake were monitored during the first 4 h (initial binge), the first 24 h, and the second 24 h. Next, the animals were only given water for 48 h before the start of another drinking session when ethanol and water consumption was monitored. The placement (right or left) of the bottles was altered in each session to control for side preference. Spillage was monitored using an additional bottle in a nearby unused cage. Alcohol preference was calculated as the ratio between alcohol/(water+alcohol). Mice were tested using a counterbalanced, within subject design with one week of drug-free alcohol drinking regimen between treatments. One mouse was excluded because the bottle was leaking.
# Chain of 5-HT2B receptors (P41595 whole entry, canonical isoform): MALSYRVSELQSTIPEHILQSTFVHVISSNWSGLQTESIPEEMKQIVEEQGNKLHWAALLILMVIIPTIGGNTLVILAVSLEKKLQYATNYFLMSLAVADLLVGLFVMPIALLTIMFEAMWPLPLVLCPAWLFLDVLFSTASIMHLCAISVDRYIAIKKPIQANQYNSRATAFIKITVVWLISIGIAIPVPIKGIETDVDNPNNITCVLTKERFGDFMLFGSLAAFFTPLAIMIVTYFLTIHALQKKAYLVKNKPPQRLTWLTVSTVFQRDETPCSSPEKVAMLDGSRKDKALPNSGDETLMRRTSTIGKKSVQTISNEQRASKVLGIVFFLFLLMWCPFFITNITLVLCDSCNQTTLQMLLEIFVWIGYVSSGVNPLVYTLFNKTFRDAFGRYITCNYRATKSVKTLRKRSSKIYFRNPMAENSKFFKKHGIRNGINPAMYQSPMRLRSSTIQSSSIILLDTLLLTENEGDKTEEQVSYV
compound,measurement,setting,value
COc1ccc2c3c([nH]c2c1)CCN(C)CC3 [TBG],activity mode at 5-HT2B receptors,[1],antagonists
same,hallucinogenic potential (head-twitch response),[2],did not display hallucinogenic potential
same,5-HT2C agonist activity compared to 5-MeO-DMT,[3],weaker 5-HT1A and 5-HT2C agonist activity
same,seizure induction (neural activity),[4],Neither ibogaine nor TBG produced excessive neural activity; also recorded: does not induce seizures
same,agonist activity at mouse 5-HT2A receptors,[5],potent agonist activity
same,EtOH consumption in the days following administration,[6]; TBG 50 mg/kg i.p.,long-lasting decreases in EtOH consumption; also recorded: lower for at least two days
same,EtOH preference during binge drinking session,[6]; TBG 50 mg/kg i.p.,reduces EtOH consumption and preference
same,water intake,[6]; TBG 50 mg/kg i.p.,without impacting H2O intake; also recorded: not affected
same,EtOH consumption during binge drinking session,"[6]; first 4 h, TBG 50 mg/kg i.p. 3 h before session",reduces EtOH consumption and preference; also recorded: robustly reduces binge drinking
